Assay results reported in patent US20230039766A1, “COMBINATION THERAPY” (TURBINE SIMULATED CELL TECHNOLOGIES LTD, priority 2019, published 2023).

Columns and labels:
NCIH1975 cell line = experiment: CellTiter-Glo cell viability assay with Bliss synergy, NCIH1975 cells; assay type: cell-based
BT474 cell line = experiment: CellTiter-Glo cell viability assay with Bliss synergy, BT474 cells; assay type: cell-based

O=C(c1cc(Cc2n[nH]c(=O)c3ccccc23)ccc1F)N1CCN(C(=O)C2CC2)CC1 [Olaparib]
Viability/εij (NCIH1975 cell line; Olaparib 6.67 μM monotherapy): 0.678
Viability/εij (BT474 cell line; Olaparib 6.67 μM monotherapy): 0.825

O=c1[nH]c(=S)[nH]c(N=Cc2ccccc2)c1N=Cc1ccccc1 [SCR7]
Viability/εij (BT474 cell line; SCR7 60 μM monotherapy): 0.653

Cn1ncnc1[C@H]1c2n[nH]c(=O)c3cc(F)cc(c23)N[C@@H]1c1ccc(F)cc1 [Talazoparib]
Viability/εij (NCIH1975 cell line; Talazoparib 0.25 μM monotherapy): 0.597
